The values below are quoted from earlier work in patent US20130344444A1, “PROCESS FOR MAKING LITHOGRAPHIC PRINTING PLATE” (FUJIFILM Corporation, priority 2011, published 2013).

Each structure is given as a SMILES string.

As to `OCCOc1ccccc1` [Ethyleneglycol monophenyl ether, reference compound], the solubility in water is on record as 2.7 g/100 mL of water.
Turning to `CCCCC(CC)COCCOCCO` (stereo not drawn) [Diethylene glycol mono-2-ethylhexyl ether], the solubility in water is listed as 0.3 g/100 mL of water.
Turning to `CCCCCCOCCO` [Ethylene glycol mono-n-hexyl ether], the solubility in water is recorded as 1.0 g/100 mL of water.
Turning to `CCCCOCC(C)O` (stereo not drawn) [Propylene glycol mono-n-butyl ether], the solubility in water is given as 4.4 g/100 mL of water.
As to `CC(C)(C)OCCO` [Ethylene glycol mono-t-butyl ether], the “solubility in water (in words)” value is recorded as “mutually mixing”.
For the compound `OCc1ccccc1` [Benzyl alcohol, reference compound], the solubility in water is given as 4.0 g/100 mL of water.
